# Assays:
# [1] = system: human myelogenous leukemic cells (HL-60); experiment: Inhibition of proliferation using human myelogenous leukemic cells (HL-60); type: cell-based; details: 96 h, HL-60 cells, stationary culture at 37°C for 4 days, surviving cell number (Trypan Blue) relative to control
# Method: The test on the inhibition of proliferation of human myelogenous leukemic cells was conducted by a well known method. The human myelogenous leukemic cells (HL-60) were added to an RPMI culture solution containing 10% bovine fetal serum, the number of cells in the culture solution was adjusted to 1x10^5 cells/ml, a solution in ethanol of the test compound was added to give a concentration of 5µg/ml or 1 µg/ml, and the mixture was subjected to stationary culture at 37°C for 4 days. As a control, a culture solution containing 0.1% of ethanol was similarly cultured. The culture solutions were stained by the Trypan Blue staining method, and the surviving cell number was measured to determine the degree of inhibition relative to the control.
# [2] = system: cells originated from human mouth tumor (KB-cells); experiment: Inhibition of proliferation using cells originated from human mouth tumor (KB-cells); type: cell-based; details: 96 h, stationary culture at 37°C for 4 days, surviving cell number (Trypan Blue) relative to control
# Method: The test on the inhibition of proliferation of cells originated from human mouth tumor was conducted by a well known method. The cells originated from human mouth tumor (KB-cells) were added to Eagle's MEM culture solution containing 10% bovine fetal serum, the number of cells in the culture solution was adjusted to 1x10^5 cells/ml, a solution in ethanol of the test compound was added to give a concentration of […] and the mixture was subjected to stationary culture at 37°C for 4 days. As a control, a culture solution containing 0.1% of ethanol was similarly cultured. After the culture, the culture solutions were stained by the Trypan Blue staining method, and the surviving cell number was measured to determine the degree of inhibition relative to the control.
# Ehrlich ascites tumor = experiment: Prolongation of survival of mice inoculated with Ehrlich ascites tumor; type: in vivo; parameters: unit not given here; details: ICR mice inoculated intraperitoneally with Ehrlich ascites tumor cells (3 x 10^6/mouse) on day 0, 20 mg/kg/day intraperitoneally from day 1 to day 5
# Method: The test on the prolongation of survival of mice inoculated with Ehrlich ascites tumor was conducted by a well known method. ICR mice, weighing 25 - 30 g, were inoculated with Ehrlich ascites tumor cells (3 x 10^6/mouse) intraperitoneally on day 0. A test compound was administered to mice intraperitoneally at a dose of 20 mg/kg/day from day 1 to day 5. Throughout the experiments, each group consisted of six mice (eight mice in control group). The effects of the test compounds were judged by the prolongation of survival time in days. In the Table 2, T/C was calculated below. [formula]
# [3] = Acute toxicity by intraperitoneal administration in mice; details: mouse, in vivo, ip
# Method: The acute toxicity of the compounds of the present invention was more than 100 mg/kg by intraperitoneal administration in mice, so that the PGD analogues of the present invention may be considered to be sufficiently safe and suitable for medical use.
SMILES,inhibition at 1 µg/mL [1],inhibition at 5 µg/mL [1],inhibition at 1 µg/mL [2],inhibition at 5 µg/mL [2],T/C (Ehrlich ascites tumor),LD50 [3]
"CCCCC[C@H](O)/C=C/[C@H]1C(=O)C=C[C@@H]1C/C=C\CCCC(=O)NS(C)(=O)=O [Compound 4, 9-Deoxy-Δ^9-PGD2 methanesulfonylamide]",3.9%,1.5%,12.6%,25.5%,,
"CCCCC[C@H](O)/C=C/[C@H]1C(=O)C=C[C@@H]1C/C=C\CCCC(=O)CO [Compound 2, 2-Decarboxy-2-glycoloyl-9-deoxy-Δ^9-PGD2]",100%,100%,90.9%,100%,70.5,
"CCCCCC=CC=C1C(=O)C=CC1CC=CCCCC(=O)CO (stereo not shown) [Compound 3, (5Z,9Z,14EZ)-1-Hydroxymethylprosta-5,9,12,14-tetraene-1,11-dione]",100%,100%,10.6%,100%,244.6,
"CCCCCC=CC=C1C(=O)C=CC1CC=CCCCC(=O)N(C)C (stereo not shown) [Compound 8, (5Z,9Z,14EZ)-N,N-Dimethyl-11-oxoprosta-5,9,12,14-tetraen-1-amide]",30.9%,100%,9.5%,100%,,
"CCCCC[C@H](O)/C=C/[C@H]1C(=O)C[C@H](O)[C@@H]1C/C=C\CCCC(=O)N(C)C [Compound 6, (SZ,13E)-(9a,15S)-N,N-Dimethyl-9,15-dihydroxy-11-oxoprosta-5,13-dien-1-amide]",9.9%,99.1%,19.6%,100%,,
"CCCCCC=CC=C1C(=O)C=CC1CC=CCCCC(=O)NS(C)(=O)=O (stereo not shown) [Compound 5, (5Z,9Z,14EZ)-N-Methanesulfonyl-11-oxoprosta-5,9,12,14-tetraen-1-amide]",0%,78.1%,0.9%,34.6%,,
"CCCCC[C@H](O)/C=C/[C@H]1C(=O)C=C[C@@H]1C/C=C\CCCC(N)=O [Compound 10, (52,9Z,13E)-(15S)-11-Oxo-15-hydroxyprosta-5,9,13-trien-1-amide]",,,15.4%,100%,,167 mg/kg
"CCCCCC=CC=C1C(=O)C=CC1CC=CCCCC(N)=O (stereo not shown) [Compound 11, (5Z,9Z,14EZ)-11-Oxoprosta-5,9,12,14-tetraen-1-amide]",,,0.9%,100%,155.6,
"CCCCC[C@H](O)/C=C/[C@H]1C(=O)C=C[C@@H]1C/C=C\CCCC(=O)N(C)C [Compound 7, (5Z,9Z,13E)-(15S)-N,N-Dimethyl-11-oxo-15-hydroxyprosta-5,9,13-trien-l-amide]",41.8%,100%,23.7%,100%,,
"CCCCC[C@H](O)/C=C/[C@H]1C(=O)C[C@H](O)[C@@H]1C/C=C\CCCC(=O)CO [Compound 1, 2-Decarboxy-2-glycoloyl-PGD2]",20.4%,96.7%,23.5%,100%,75.3,156 mg/kg
"CCCCC[C@H](O)/C=C/[C@H]1C(=O)C[C@H](O)[C@@H]1C/C=C\CCCC(N)=O [Compound 9, (5Z,13E)-(9α,15S)-9,15-Dihydroxy-11-oxoprosta-5,13-dien-1-amide]",21.5%,97.8%,2.8%,98.8%,,

# From patent EP0098141A2, “Prostaglandin D analogues, process for their preparation and compositions containing them” (ONO PHARMACEUTICAL CO., LTD., priority 1982, dated 1984)
